Patent US6391826B1, “Optically active uracil compounds” (Sumitomo Chemical Company, Limited, priority 1998, dated 2002)

Columns and labels:
Type in all cases: in vivo
Parameters in all cases: key: “0” means that there was no or little difference in the degree of germination or growth between the treated and the untreated tested plants at the time of examination; “5” means that the test plants died complete or their germination or growth was completely inhibited
[1] = system: johnsongrass (Sorghum halepense); assay: Test Example 4: soil surface treatment on upland fields; settings: examined after 25 days, index 0-5
Protocol: (§1) Soil Surface Treatment on upland fields Plastic pots which have an area of (26.5×19)cm^2 and a depth of 7 cm were filled with upland soil, seeded with hemp sesbania (Sesbania exaltata), barnyardgrass (Echinochloa crus-gali) and johnsongrass (Sorghum halepense). Each of the test compounds was formulated into emulsifiable concentrates according to Formulation Example 2, which was diluted with a designated amount of water, and such was uniformly sprayed over the soil surface in the pots with a sprayer at a volume of 100 liters per hectare. After the application, the test were grown in a greenhouse for 25 days, and the herbicidal activity was examined.

[2] = system: hemp sesbania (Sesbania exaltata); assay: as above; settings: examined after 25 days, index 0-5
Protocol: as §1

[3] = system: barnyardgrass (Echinochloa crus-gali); assay: as above; settings: examined after 25 days, index 0-5
Protocol: as §1

[4] = system: johnsongrass (Sorghum halepense); assay: Test Example 5: soil incorporation treatment on upland fields; settings: examined after 19 days, index 0-5
Source text: (§2) Soil Incorporation Treatment on Upland Fields Cylindrical plastic pots of 10 cm in diameter and a 10 cm in depth were filled with upland soil. The soil from the surface to 3 cm in depth was taken and mixed with the dilution which was given by diluting the emulsifiable concentrates of the test compounds, formulated according to Formulation Example 2, with water at a volume of 606 liters per hectare. Thereafter, the treated soil was put back to the pots, in which johnsongrass (Sorghum halepense) was sowed at 1.5 cm in depth. The test plants were grown in a greenhouse for 19 days, and the herbicidal activity was examined.

[5] = system: johnsongrass (Sorghum halepense); assay: Test Example 6: soil surface treatment on upland fields; settings: examined after 25 days, index 0-5
Protocol: (§3) Soil Surface Treatment on Upland Fields Plastic pots which have an area of (26.5×19)cm^2 and a depth of 7 cm were filled with upland soil, seeded with johnsongrass (Sorghum halepense). Each of the test compounds was formulated into emulsifiable concentrates according to Formulation Example 2, which was diluted with a designated amount of water, and such was uniformly sprayed over the soil surface in the pots with a sprayer at a volume of 1000 liters per hectare. After the application, the test plants were placed in a greenhouse for 25 days, and the herbicidal activity was examined.

[6] = system: johnsongrass (Sorghum halepense); assay: Test Example (Table 3): soil incorporation treatment on upland fields; settings: examined after 19 days, index 0-5
Source text: Soil Incorporation Treatment on Upland Fields
as §2, with “Cylindrical” for “Soil Incorporation Treatment on Upland Fields Cylindrical”

[7] = system: johnsongrass (Sorghum halepense); assay: Test Example 2: soil surface treatment on upland fields; settings: examined after 25 days, index 0-5
Protocol: Soil Surface Treatment on Upland Fields
as §3, with “Plastic” for “Soil Surface Treatment on Upland Fields Plastic”, “grown” for “placed”

[8] = system: common cocklebur (Xanthium strumarium); assay: Test Example 1: foliar treatment on upland fields; settings: 1 g/ha active ingredient; foliar spray on 21-day plants, 1% Agri-Dex; examined after 21 days; index 0-5
Protocol: Foliar Treatment on Upland Fields
Plastic pots which have an area of (26.5×19)cm^2 and a depth of 7 cm were filled with upland soil, seeded with common cocklebur (Xanthium strumarium) and were given 21 days to grow in a greenhouse. Each of the test compounds was formulated into emulsifiable concentrates according to Formulation Example 2, which was diluted with a designated amount of water containing 1% Agri-Dex (adjuvant produced by Helena Chemical Company), and such was uniformly sprayed over the foliage of the test plants with a sprayer at a volume of 1000 liters per hectare. After the application, the test plants were grown in the greenhouse for 21 days, and the herbicidal activity was examined.

Structure (SMILES): CCOC(=O)C(C)Oc1cc(-n2c(=O)cc(C(F)(F)F)n(C)c2=O)c(F)cc1Cl (racemic) [Comparative Compound 2, ethyl (2RS)-2-[2-chloro-4-fluoro-5-[3-methyl-2,6-dioxo-4-(trifluoromethyl)-1,2,3,6-tetrahydropyrimidin-1-yl]phenoxy]propionate]
- Herbicidal Activity johnson-grass ([1]; 16 g/ha): 0
- Herbicidal Activity johnson-grass ([1]; 32 g/ha): 2
- Herbicidal Activity johnson-grass ([1]; 63 g/ha): 3
- Herbicidal Activity johnson-grass ([1]; 125 g/ha): 4
- Herbicidal Activity hemp sesbania ([2]; 16 g/ha): 0
- Herbicidal Activity hemp sesbania ([2]; 32 g/ha): 2
- Herbicidal Activity hemp sesbania ([2]; 63 g/ha): 3
- Herbicidal Activity hemp sesbania ([2]; 125 g/ha): 4
- Herbicidal Activity barnyard-grass ([3]; 16 g/ha): 0
- Herbicidal Activity barnyard-grass ([3]; 32 g/ha): 3
- Herbicidal Activity barnyard-grass ([3]; 63 g/ha): 3
- Herbicidal Activity barnyard-grass ([3]; 125 g/ha): 5
- Herbicidal Activity johnsongrass ([4]; 20 g/ha): 1
- Herbicidal Activity johnsongrass ([4]; 40 g/ha): 2
- Herbicidal Activity johnsongrass ([4]; 80 g/ha): 4

Structure (SMILES): C=CCOC(=O)C(C)Oc1cc(-n2c(=O)cc(C(F)(F)F)n(C)c2=O)c(F)cc1Cl (racemic) [Comparative Compound 3, allyl (2RS)-2-[2-chloro-4-fluoro-5-[3-methyl-2,6-dioxo-4-(trifluoromethyl)-1,2,3,6-tetrahydropyrimidin-1-yl]phenoxy]propionate, reference compound]
- Herbicidal Activity johnsongrass ([5]; 16 g/ha): 0
- Herbicidal Activity johnsongrass ([5]; 32 g/ha): 1
- Herbicidal Activity johnsongrass ([5]; 63 g/ha): 2

Structure (SMILES): COC(=O)C(C)Oc1cc(-n2c(=O)cc(C(F)(F)F)n(C)c2=O)c(F)cc1Cl (single isomer, unassigned) [Present Compound 6, methyl 2-[2-chloro-4-fluoro-5-[3-methyl-2,6-dioxo-4-(trifluoromethyl)-1,2,3,6-tetrahydropyrimidin-1-yl]phenoxy]propionate]
- Herbicidal Activity johnsongrass ([6]; 20 g/ha): 3
- Herbicidal Activity johnsongrass ([6]; 40 g/ha): 5
- Herbicidal Activity johnsongrass ([6]; 80 g/ha): 5
- Herbicidal Activity johnsongrass ([7]; 16 g/ha): 4
- Herbicidal Activity johnsongrass ([7]; 32 g/ha): 5
- Herbicidal Activity johnsongrass ([7]; 63 g/ha): 5

Structure (SMILES): COC(=O)C(C)Oc1cc(-n2c(=O)cc(C(F)(F)F)n(C)c2=O)c(F)cc1Cl (single isomer, unassigned) [Present Compound 7, methyl 2-[2-chloro-4-fluoro-5-[3-methyl-2,6-dioxo-4-(trifluoromethyl)-1,2,3,6-tetrahydropyrimidin-1-yl]phenoxy]propionate]
- Herbicidal Activity johnsongrass ([6]; 20 g/ha): 2
- Herbicidal Activity johnsongrass ([6]; 40 g/ha): 5
- Herbicidal Activity johnsongrass ([6]; 80 g/ha): 5
- Herbicidal Activity johnsongrass ([7]; 16 g/ha): 4
- Herbicidal Activity johnsongrass ([7]; 32 g/ha): 5
- Herbicidal Activity johnsongrass ([7]; 63 g/ha): 5

Structure (SMILES): COC(=O)[C@H](C)Oc1cc(-n2c(=O)cc(C(F)(F)F)n(C)c2=O)c(F)cc1Cl [Comparative Compound 1, methyl (2S)-2-[2-chloro-4-fluoro-5-[3-methyl-2,6-dioxo-4-(trifluoromethyl)-1,2,3,6-tetrahydropyrimidin-1-yl]phenoxy]propionate, reference compound]
- Herbicidal Activity Common Cocklebur [8]: 0

Structure (SMILES): COC(=O)C(C)Oc1cc(-n2c(=O)cc(C(F)(F)F)n(C)c2=O)c(F)cc1Cl (centres unmarked) [Comparative Compound 4, methyl 2-[2-chloro-4-fluoro-5-[3-methyl-2,6-dioxo-4-(trifluoromethyl)-1,2,3,6-tetrahydropyrimidin-1-yl]phenoxy]propionate, reference compound]
- Herbicidal Activity johnsongrass ([6]; 20 g/ha): 0
- Herbicidal Activity johnsongrass ([6]; 40 g/ha): 2
- Herbicidal Activity johnsongrass ([6]; 80 g/ha): 4
- Herbicidal Activity johnsongrass ([7]; 16 g/ha): 1
- Herbicidal Activity johnsongrass ([7]; 32 g/ha): 2
- Herbicidal Activity johnsongrass ([7]; 63 g/ha): 4

Structure (SMILES): COC(=O)[C@@H](C)Oc1cc(-n2c(=O)cc(C(F)(F)F)n(C)c2=O)c(F)cc1Cl [Present Compound 1, methyl (2R)-2-[2-chloro-4-fluoro-5-[3-methyl-2,6-dioxo-4-(trifluoromethyl)-1,2,3,6-tetrahydropyrimidin-1-yl]phenoxy]propionate]
- Herbicidal Activity Common Cocklebur [8]: 5

Structure (SMILES): CCOC(=O)[C@@H](C)Oc1cc(-n2c(=O)cc(C(F)(F)F)n(C)c2=O)c(F)cc1Cl [Present Compound 2, ethyl (2R)-2-[2-chloro-4-fluoro-5-[3-methyl-2,6-dioxo-4-(trifluoromethyl)-1,2,3,6-tetrahydropyrimidin-1-yl]phenoxy]propionate]
- Herbicidal Activity johnson-grass ([1]; 16 g/ha): 3
- Herbicidal Activity johnson-grass ([1]; 32 g/ha): 5
- Herbicidal Activity johnson-grass ([1]; 63 g/ha): 5
- Herbicidal Activity hemp sesbania ([2]; 16 g/ha): 2
- Herbicidal Activity hemp sesbania ([2]; 32 g/ha): 5
- Herbicidal Activity hemp sesbania ([2]; 63 g/ha): 5
- Herbicidal Activity barnyard-grass ([3]; 16 g/ha): 5
- Herbicidal Activity barnyard-grass ([3]; 32 g/ha): 5
- Herbicidal Activity barnyard-grass ([3]; 63 g/ha): 5
- Herbicidal Activity johnsongrass ([4]; 20 g/ha): 4
- Herbicidal Activity johnsongrass ([4]; 40 g/ha): 5
- Herbicidal Activity johnsongrass ([4]; 80 g/ha): 5

Structure (SMILES): C=CCOC(=O)[C@@H](C)Oc1cc(-n2c(=O)cc(C(F)(F)F)n(C)c2=O)c(F)cc1Cl [Present Compound 3, allyl (2R)-2-[2-chloro-4-fluoro-5-[3-methyl-2,6-dioxo-4-(trifluoromethyl)-1,2,3,6-tetrahydropyrimidin-1-yl]phenoxy]propionate]
- Herbicidal Activity johnsongrass ([5]; 16 g/ha): 3
- Herbicidal Activity johnsongrass ([5]; 32 g/ha): 5
- Herbicidal Activity johnsongrass ([5]; 63 g/ha): 5

Structure (SMILES): COC(=O)[C@@H](C)Oc1cc(-n2c(=O)cc(C(F)(F)F)n(C)c2=O)c(F)cc1Cl [Present Compound 5, methyl (2R)-2-[2-chloro-4-fluoro-5-[3-methyl-2,6-dioxo-4-(trifluoromethyl)-1,2,3,6-tetrahydropyrimidin-1-yl]phenoxy]propionate]
- Herbicidal Activity johnsongrass ([6]; 20 g/ha): 4
- Herbicidal Activity johnsongrass ([6]; 40 g/ha): 5
- Herbicidal Activity johnsongrass ([6]; 80 g/ha): 5
- Herbicidal Activity johnsongrass ([7]; 16 g/ha): 4
- Herbicidal Activity johnsongrass ([7]; 32 g/ha): 5
- Herbicidal Activity johnsongrass ([7]; 63 g/ha): 5
